Patent publication US4875925A, “Herbicidal method using diflufenican” (May & Baker Limited, priority 1986, dated 1989)

Experiments:
Format in all cases: in vivo
Lamium purpureum = assay: Field control of Lamium purpureum in winter barley and winter wheat (Experiment 3); conditions: diflufenican 80 g/ha, trifluralin 800 g/ha, or both; for % weed phytotoxicity 72 days after spraying: in winter barley (variety Igri); for % weed phytotoxicity 98 days after spraying: in winter wheat (variety Galahad)
Source text: (§1) Diflufenican formulated as a 50% w/v aqueous suspension concentrate (Example 2), trifluralin as a 48% w/v emulsifiable concentrate (commercial product and a mixed formulation of diflufenican and trifluralin containing 44% w/v total active ingredient (Example 6) were applied at 0.16 l, 1.67 l and 2 l/ha respectively pre-emergence and just at emergence to winter barley and winter wheat to control Lamium purpureum pre-emergence under field conditions. The treatments were applied to three replicate 30 m^2 plots in a spray volume of 220 l/ha (winter barley) and 206 l/ha (winter wheat) using a motorised small plot sprayer. Visual % phytotoxicity was recorded and the results are given below.

[1] = test system: Winter barley (variety Igri); assay: Field crop phytotoxicity, winter barley (Experiment 3); conditions: diflufenican 80 g/ha, trifluralin 800 g/ha, or both
Source text: as §1

[2] = test system: Winter wheat (variety Galahad); assay: Field crop phytotoxicity, winter wheat (Experiment 3); conditions: diflufenican 80 g/ha, trifluralin 800 g/ha, or both
Source text: as §1

Alopecurus myosuroides = assay: Greenhouse pre-emergence weed control, pendimethalin and diflufenican (Experiment 1); conditions: 22 days after treatment
Description: Greenhouse experiment showing the nature of biological synergism between pendimethalin and diflufenican applied pre-emergence
A factorial experiment with 30 treatments was carried out to investigate the interaction of pendimethalin and diflufenican at a wide range of doses i.e. 0, 250, 500, 1000 and 2000 g/ha of pendimethalin plus diflufenican at 0, 31, 62, 125, 250 and 500 g/ha.
All treatments were made in an appropriate volume of water by using appropriate quantities of a 33% w/v emulsifiable concentrate of pendimethalin (commercial product) and diflufenican formulated as an experimental aqueous suspension concentrate (Example 2 hereinafter) containing 50% w/v active ingredient to give the above dose rates in a spray volume of 290 l/ha. All treatments were applied using a laboratory sprayer fitted with a Sparying Systems Teejet SS 8003E operating at 2.94 kgf/cm^2. Treatments were applied to about 20 Alopecurus myosuroides seeds sown 1 cm deep in a loamy soil in 7.5 cm square pots. There were 4 replicate pots per treatment which were arranged in a randomised block design in a glasshouse after treatment. The pots were watered by a combination of overhead irrigation and sub-irrigation. A visual assessment of weed control was made 22 days after treatment as a percentage compared to the untreated pots. […]

Stellaria media = assay: Greenhouse post-emergence weed control, Stellaria media (Experiment 2); conditions: 2 leaf stage, 14 days after treatment
Description: (§2) Greenhouse experiment showing the nature of biological synergism between pendimethalin and diflufenican applied post-emergence
(§3) A similar experiment to that hereinbefore described in Experiment 1 was carried out with pendimethalin and diflufenican applied to either 4 plants of Stellaria media at the 2 leaf stage or 4 plants of Galium aparine at the 2 whorl (branching initiated) stage. The following 90% herbicidally effective doses (ED90) in grams of diflufenican per hectare were calculated from the mean percentage weed control 14 days after treatment.

Galium aparine = assay: Greenhouse post-emergence weed control, Galium aparine (Experiment 2); conditions: 2 whorl stage, 14 days after treatment
Description: as §2, §3

| Structure (SMILES) | % weed phytotoxicity 72 days after spraying (Lamium purpureum) | % weed phytotoxicity 98 days after spraying (Lamium purpureum) | Maximum % crop phytotoxicity [1] | Maximum % crop phytotoxicity [2] | ED50 (50% herbicidally effective dose) (Alopecurus myosuroides; diflufenican alone) | ED90 (90% herbicidally effective dose) (Stellaria media; diflufenican alone) | ED90 (90% herbicidally effective dose) (Galium aparine; diflufenican alone) | ED50 of pendimethalin alone (Alopecurus myosuroides; pendimethalin alone) | ED90 of pendimethalin alone (Stellaria media; pendimethalin alone) | ED90 of pendimethalin alone (Galium aparine; pendimethalin alone) |
| --- | --- | --- | --- | --- | --- | --- | --- | --- | --- | --- |
| CCCN(CCC)c1c([N+](=O)[O-])cc(C(F)(F)F)cc1[N+](=O)[O-] [Trifluralin, 2,6-dinitro-N,N-dipropyl-4-trifluoromethylaniline] | 20% | 5% | 0% | 0% |  |  |  |  |  |  |
| O=C(Nc1ccc(F)cc1F)c1cccnc1Oc1cccc(C(F)(F)F)c1 [diflufenican, N-(2,4-difluorophenyl)-2-(3-trifluoromethylphenoxy)nicotinamide] | 40% | 80% | 5.8% | 0% | 370 grams of diflufenican per hect | 340 grams of diflufenican per hect | > 500 grams of diflufenican per hect |  |  |  |
| CCC(CC)Nc1c([N+](=O)[O-])cc(C)c(C)c1[N+](=O)[O-] [pendimethalin, N-(1-ethylpropyl)-3,4-dimethyl-2,6-dinitroaniline] |  |  |  |  |  |  |  | 2071 g/ha | 1653 g/ha | greater than 2000 g/ha |
